Test results as given in ChEMBL document CHEMBL1781877, “Synthesis and evaluation of new carbonic anhydrase inhibitors” (2011).

tested on: Mus musculus; assay: Antihypoxic activity in fasted Kunming mouse assessed as survival time of mouse under hypoxic condition at 80 mg/kg administered for 5 days (reference value: 2199 +/-217 secs); assay type: functional

SMILES | Time [s]
Cc1ccc(CN(c2nnc(S(N)(=O)=O)s2)S(=O)(=O)c2ccc(C)cc2)cc1 | 2512
CC(=O)Nc1nnc(S(N)(=O)=O)s1 [ACETAZOLAMIDE] | 2726
Cc1ccc(S(=O)(=O)N(Cc2ccccc2)c2nnc(S(N)(=O)=O)s2)cc1 | 2582
Cc1ccc(S(=O)(=O)N(CCc2ccccc2)c2nnc(S(N)(=O)=O)s2)cc1 | 2441
Cc1ccc(S(=O)(=O)N(Cc2ccc(F)cc2)c2nnc(S(N)(=O)=O)s2)cc1 | 2860
Cc1ccc(S(=O)(=O)N(c2nnc(S(N)(=O)=O)s2)C(C)C)cc1 | 2426
CCCCN(c1nnc(S(N)(=O)=O)s1)S(=O)(=O)c1ccccc1 | 2977
CCCN(c1nnc(S(N)(=O)=O)s1)S(=O)(=O)c1ccccc1 | 3135
Cc1ccc(S(=O)(=O)N(CC(C)C)c2nnc(S(N)(=O)=O)s2)cc1 | 3486
CCCCCN(c1nnc(S(N)(=O)=O)s1)S(=O)(=O)c1ccccc1 | 2716
CCN(c1nnc(S(N)(=O)=O)s1)S(=O)(=O)c1ccccc1 | 2716
